According to article PMC11050087, “Polyphenols from Maackia amurensis Heartwood Protect Neuronal Cells from Oxidative Stress and Prevent Herpetic Infection” (International Journal of Molecular Sciences, 2024):
Values joined by “and” are separate entries in the source; they are usually repeats but may differ in a detail not shown here. Identical values can stand only once. Like-named read-outs stand apart in the source and are kept apart here.

What was measured:
[1] = tested on: PQ-treated Neuro-2a cells; assay: ROS analysis in PQ-treated cells (H2DCF-DA); format: cell-based, murine; settings: PQ 1 mM
Description: We previously studied the effect of stilbens 9, 10, 11, and 13 on cell viability and ROS level in PQ-treated Neuro-2a cells. Here, we evaluated the neuroprotective potential against the toxic effect of PQ of stilbene 1, flavonoid 6 and isoflavonoids 2–5, 7, 12 (Figure 7a–d).
Figure 7 The effect of polyphenolic compounds isolated from M. amurensis heartwood on cell viability (a–c) and ROS levels (d) in Neuro-2a cells treated with PQ (1 mM). Polyphenolic compounds isolated from M. amurensis heartwood were used at concentrations 10, 1, 0.1 μM. The data are presented as means ± SEM of three independent replicates. (*), (**), and (***) indicate, respectively, p < 0.05, p < 0.005, and p < 0.001 versus PQ-treated cells.
After 24 h of adhesion, Neuro-2a cells (5 × 10^4 cells/mL) were incubated with polyphenolic compounds at concentrations of 0.1, 1, and 10 µM for 1 h. Then, 120 µM of 6-OHDA or 1 mM of PQ were added to each well, and cells were incubated for 1 h. To study the ROS formation, 20 µL of 2,7-dichlorodihydrofluorescein diacetate solution (H2DCF-DA, Sigma-Aldrich, St. Louis, MO, USA) were added to each well, so that the final concentration was 10 µM. Then, the microplate was incubated for 30 min at 37 °C.

[2] = tested on: 6-OHDA-treated Neuro-2a cells; assay: Apoptosis profile by flow cytometry (Annexin V & Dead Cell Kit); format: cell-based, murine; settings: Table 1; polyphenols 10 µM, 6-OHDA 100 µM, 24 h; mean
Description: We investigated the effect of polyphenolic compounds from M. amurensis on apoptosis profile in 6-OHDA-treated Neuro-2a cells by flow cytometry using fluorescent annexin V conjugate as a fluorescent dye. We observed significant changes in apoptosis profile in Neuro-2a cells after 6-OHDA-treatment. […] Polyphenols 3, 6 and 13 diminished the neurotoxic effect of 6-OHDA-treatment.
The cells were incubated for 1 h in a 6-well plate (5 × 10^4 cells/mL) with polyphenolic compounds (10 µM). Then, 6-OHDA (100 µM) was added, and cell suspension was incubated for 24 h. After incubation, the maintenance media was collected, and the cells were washed by cold PBS twice and incubated with trypsin-EDTA solution. The cell suspension was washed with cold PBS twice again, centrifugated and then used for apoptosis detection by Muse® Annexin V & Dead Cell Kit in accordance with the manufacturer’s instructions (Luminex, Austin, TX, USA). The fluorescence was measured with Muse® Cell Analyzer (Luminex, Austin, TX, USA) and the data were processed by Muse 1.5 Analysis software (Luminex, Austin, TX, USA).

[3] = tested on: HSV-1; set-up: method as in PMID 36985562; settings: ref [22], cited from earlier work; for Simultaneous Treatment SI: ratio of CC50 to IC50; for Simultaneous Treatment IC50 / IC50: virus and compound added to cells simultaneously, CPE assay; for IC50: read-out: Simultaneous Treatment IC50
[4] = tested on: HSV-1; assay: Pretreatment of cells with polyphenolic compounds, CPE inhibition assay; format: cell-based, HSV-1 strain L2; settings: for IC50: Human alphaherpesvirus 1, cells pretreated 2 h before infection, CPE assay; for Pretreatment of Cells SI: ratio of CC50 to IC50
Description: In order to study the mechanism of action of these compounds, two additional schemes of treatment of the virus and Vero cells with polyphenols were applied: the compounds were added before virus infection (pretreatment of cells) and after penetration of the virus into host cells (treatment of infected cells). The fourth method of exposure where the virus and polyphenols were added to cells simultaneously (simultaneous treatment) was previously described by us in [22]. The anti-HSV-1 activity of polyphenols was assessed using the cytopathic effect inhibition (CPE) assay.
The monolayer of cells was pretreated with different concentrations of the studied compounds for 2 h at 37 °C. After washing, the cells were infected with 100 TCID50/mL of the virus at 37 °C for 1 h. Then, unabsorbed virus was removed by washing with PBS (Sigma, Saint-Louis, MO, USA), and cells were incubated in the maintenance medium until CPE appeared.

Row | SMILES | effect on ROS level in PQ-treated Neuro-2a cells (in words) [1] | Dead [2] [%] | Early apop. [2] [%] | Late apop./Dead [2] [%] | Live [2] [%] | Simultaneous Treatment SI [3] | Simultaneous Treatment IC50 [3] [µg/mL] | IC50 [3] [µM] | IC50 [4] | Pretreatment of Cells SI [4]
1 | O=C1C[C@@H](c2ccc(O)cc2)Oc2cc(O)ccc21 [Compound 6, liquiritigenin] | effectively reduced the ROS level | 0.61 ± 0.13 | 27.67 ± 1.09 | 10.89 ± 0.86 | 61.83 ± 0.09 |  |  |  |  | 
2 | Oc1cc(O)cc(/C=C/c2ccc3c(c2)O[C@H](c2cc(O)cc(O)c2)[C@@H](c2ccc(O)c(O)c2)O3)c1 [Compound 9, maackin] |  |  |  |  |  | 15.3 ± 1.9 | 17.6 ± 2.3 | 36.2 ± 4.7 | 70.3 µg/mL and 145 µM | 3.8 and 3.8 ± 0.5
3 | Oc1ccc(/C=C/c2cc(O)cc3c2[C@H](c2cc(O)cc(O)c2)[C@@H](c2ccc(O)c(O)c2)O3)cc1 [Compound 13, scirpusin A] |  | 0.73 ± 0.15 | 30.18 ± 1.13 | 12.2 ± 0.34 | 56.90 ± 1.32 | 14.4 ± 1.7 | 13.8 ± 1.6 | 29.4 ± 3.4 | 47.2 µg/mL and 100 µM | 4.2 and 4.2 ± 0.6
